{"source": "patent US6833383B2", "about": "“Methods for treating patients suffering from drug dependencies which lead to plasma melatonin deficiencies” (Neurim Pharmaceuticals (1991) Ltd., priority 1995, dated 2004)", "key": {"[1]": {"experiment": "long term melatonin in two insomnia patients dependent upon flunitrazepam", "format": "in vivo, human", "description": "Two volunteers, […], a person, and […], a person, had each suffered for a number of years from insomnia and/or frequent awakenings during the night accompanied by difficulty in falling asleep again. […] Both patients had been taking 1-2 mg of flunitrazepam orally prior to retiring each evening.\nEach patient was weaned off of the flunitrazepam via gradual reduction and simultaneous administration of melatonin over a two month period. During this time, each patient received 2 mg melatonin in controlled release form daily. Since the end of that two month period, each patient has been taking 2 mg oral controlled release melatonin for almost two years.\n[…] Each patient also reported reduced fatigue during the daytime within several days after the beginning of the weaning period."}, "Benzodiazepine receptors": {"test_system": "Benzodiazepine receptors", "experiment": "3H-flunitrazepam and 3H-RO 15-1788 binding to crude synaptosomal pellets of brains of rats treated for 21 days", "format": "in vivo, rat", "description": "(§1) 20 male rats, maintained on a daily 14 hour light/10 hour darkness schedule, were divided into 4 groups, each consisting of 5 members:\n(§2) Group 1 (the control group): rats were injected daily with 200 μl saline intraperitoneally for 21 days and were allowed to drink tap water.\n(§3) They also were provided with regular tap water.\n(§4) Group 3 (the melatonin group): rats were injected daily with 200 μl saline intraperitoneally. Their only available drinking water contained 0.4% by weight melatonin.\n(§5) Each group was allowed food and water ad libitum. After 21 days the treatment was stopped. The animals were decapitated between 6:00 and 7:00 p.m. the next day, their brains were rapidly removed and crude synaptosomal pellets were prepared, and melatonin receptors were assessed using 2-^125I-melatonin, as described by Laudon, M., and N. Zisapel, FEBS Lett. 197:9 (1986). Benzodiazepine receptors were assessed by measuring the binding of radioactive benzodiazepine receptor probes ^3H-flunitrazepam (^3H-FNZ) and ^3H-RO 15-1788 as described by Amiri, Z. et al. Brain Res. 553:155 (1991). Binding parameters were calculated from the equilibrium binding data. […] Binding parameters of the various groups were compared by analysis of variance followed by Student-Newman-Keul's test for multiple comparison. Differences were considered significant if P<0.05."}, "[2]": {"experiment": "case study: withdrawal from benzodiazepine tolerance and sleep in a patient", "format": "in vivo, human", "excerpt": "This example illustrates the action of melatonin in facilitating rapid withdrawal from benzodiazepine tolerance. A person, married with two children, had been suffering from sleep onset insomnia for 10 years, accompanied by frequent and severe migraine attacks. A thorough neurological assessment was negative. Psychiatric or other organic problems also were ruled out.\nThe patient had been treated with benzodiazepines, tricyclic antidepressants and neuroleptic drugs, as well as biofeedback and relaxation methods with no apparent relief throughout the 10 year period. For the last year, they had been taking 4-8 mg Lorazepam every night, taking a 0.5 mg tablet every half hour or hour throughout the night. This led to difficulties when the patient arose in the morning; they would feel heavily sedated and had problems functioning at work, especially when under pressure. They began to feel that they were losing their memory and ability to concentrate.\n(§6) The quality of sleep was assessed by an actigraph tracing which automatically monitors the bedtime sleep-wake pattern through a small device attached to the hand. […] Urine was collected every three hours for 36 hours and assayed for the diurnal secretion of […] melatonin.\n(§7) Oral administration of a controlled release melatonin formulation in the form of tablets containing 1 mg melatonin (Neurim Pharmaceuticals, Israel) (made in accordance with the procedures set forth in example 1 for tablet SR-A) was initiated in order to correct for the deficiency and distortion of the melatonin rhythm. One tablet was administered daily at 8:30 p.m. The patient was asked to gradually reduce the number of benzodiazepine tablets taken each night.\n(§8) The treatment was stopped and 2 weeks afterwards the patient's urine was collected again every three hours over a 36 hour period and assayed for 6-sulfatoxymelatonin. […] A three month follow-up confirmed that the patient maintained their quality of sleep and hardly suffered from headaches. After 6 months without treatment the patient's sleep quality began to deteriorate and melatonin therapy was resumed. The therapy restored their sleep quality and the patient continues to take 3 mg melatonin daily."}, "melatonin receptors": {"test_system": "melatonin receptors", "experiment": "2-125I-melatonin binding to crude synaptosomal pellets of brains of rats treated for 21 days", "format": "in vivo, rat", "conditions": "21 days treatment", "description": "as §1, §2, §3, §4, §5"}, "[3]": {"experiment": "urinary 6-sulfatoxymelatonin in benzodiazepine-dependent patient after melatonin therapy", "format": "in vivo, human", "conditions": "for Urinary 6-sulfatoxymelatonin after treatment: 2 weeks after stopping 1 mg controlled release melatonin daily", "description": "as §6, §7, §8"}, "[4]": {"conditions": "2 mg controlled release melatonin daily, patients"}, "[5]": {"conditions": "cerebral cortex, 21 days treatment"}, "[6]": {"conditions": "1 mg controlled release melatonin tablet daily"}}, "data": [{"molecule": "COc1ccc2[nH]cc(CCNC(C)=O)c2c1", "note": "[melatonin]", "values": [{"measurement": "sleep inducement (subjective report)", "setting": "[1]; [4]", "result": "good"}, {"measurement": "sleep quality (subjective report)", "setting": "[1]; [4]", "result": "substantial improvement"}, {"measurement": "residual tiredness in the morning or hangover feeling", "setting": "[1]; 2 mg oral controlled release melatonin", "result": "has not caused any"}, {"measurement": "side effects reported", "setting": "[1]; 2 mg oral controlled release melatonin for almost two years", "result": "No side effects"}, {"measurement": "fatigue during the daytime", "setting": "[1]; within several days after the beginning of the weaning period", "result": "reduced"}, {"measurement": "reduction in specific binding of tritiated RO 15-1788 compared with the control group", "setting": "Benzodiazepine receptors; [5]", "result": 20, "unit": "%"}, {"measurement": "reduction in specific binding of tritiated flunitrazepam compared with the control group", "setting": "Benzodiazepine receptors; [5]", "result": 20, "unit": "%"}, {"measurement": "maximal binding (Bmax) of the RO-15-1788 binding sites", "setting": "Benzodiazepine receptors; medulla-pons, 21 days treatment", "result": "significantly increased"}, {"measurement": "headaches (patient's report)", "setting": "[2]; [6]", "result": "subsided gradually"}, {"measurement": "insomnia (patient's claim)", "setting": "[2]; [6]", "result": "improved remarkably"}, {"measurement": "time until the patient stopped using the benzodiazepine hypnotics altogether", "setting": "[2]; 1 mg controlled release melatonin tablet daily at 8:30 p.m., patient on 4-8 mg Lorazepam nightly", "result": "≤ 2", "unit": "days"}, {"measurement": "sleep pattern, repeated actigraph tracing", "setting": "[2]; after 3 weeks of melatonin treatment", "result": "marked improvement"}, {"measurement": "sleep quality after melatonin therapy was resumed", "setting": "[2]; resumed after 6 months without treatment", "result": "restored"}, {"measurement": "binding of melatonin compared with the control group", "setting": "melatonin receptors", "result": "no difference"}, {"measurement": "urinary 6-sulfatoxymelatonin, change after therapy", "setting": "[3]; 2 weeks after treatment was stopped, urine every three hours over 36 hours", "result": "increase in amount and a clear nocturnal peak"}, {"measurement": "Urinary 6-sulfatoxymelatonin after treatment", "setting": "[3]; time 3.00", "result": 0.74, "unit": "µg/h"}, {"measurement": "Urinary 6-sulfatoxymelatonin after treatment", "setting": "[3]; time 6.00", "result": 0.36, "unit": "µg/h"}, {"measurement": "Urinary 6-sulfatoxymelatonin after treatment", "setting": "[3]; time 9.00", "result": 0.21, "unit": "µg/h"}, {"measurement": "Urinary 6-sulfatoxymelatonin after treatment", "setting": "[3]; time 12.00", "result": 0.01, "unit": "µg/h"}, {"measurement": "Urinary 6-sulfatoxymelatonin after treatment", "setting": "[3]; time 15.00 (first)", "result": 0.11, "unit": "µg/h"}, {"measurement": "Urinary 6-sulfatoxymelatonin after treatment", "setting": "[3]; time 15.00 (second)", "result": 0.04, "unit": "µg/h"}, {"measurement": "Urinary 6-sulfatoxymelatonin after treatment", "setting": "[3]; time 18.00", "result": 0.45, "unit": "µg/h"}, {"measurement": "Urinary 6-sulfatoxymelatonin after treatment", "setting": "[3]; time 21.00", "result": 0.11, "unit": "µg/h"}, {"measurement": "Urinary 6-sulfatoxymelatonin after treatment", "setting": "[3]; time 24.00", "result": 1.24, "unit": "µg/h"}]}, {"molecule": "CN1C(=O)CN=C(c2ccccc2)c2cc(Cl)ccc21", "note": "[diazepam]", "values": [{"measurement": "effect on RO 15-1788 and flunitrazepam binding sites", "setting": "Benzodiazepine receptors; [5]", "result": "did not significantly affect"}, {"measurement": "effect on the melatonin-mediated decrease in specific binding", "setting": "Benzodiazepine receptors; cerebral cortex, diazepam given together with melatonin", "result": "prevented"}]}]}
